According to patent publication US20070134261A1, “Effectors of innate immunity” (priority 2001, published 2007):
Values after ≈ are worked out from the molar mass of the structure shown. Starred links: 1 amine or outer side, 2 acyl side, 3 side chain; linkers in the order of their positions; H or OH if unused. Positions of bridges follow the written chain, without caps; N, C: chain ends. Non-standard residues stand in square brackets, D forms with d. Residues, ends and D or L forms follow the SMILES beside them. Chains are numbered I, II in the order given. Actinocin(9to1) = Cc1c2oc3c(C)ccc(C(=O)[*:1])c3nc-2c(C(=O)[*:2])c(N)c1=O; NMeV = CN[C@H](C(=O)O)C(C)C; Sar = CNCC(=O)O

Tests used:
[1] = system: RAW 264.7 mouse macrophage cells; format: cell-based; details: 20 μg/ml; 1 μg/ml AraLAM
Method: The ability of compounds to neutralize the stimulation of immune cells by both Gram-negative and Gram-positive bacterial products was tested. Bacterial products stimulate cells of the immune system to produce inflammatory cytokines and when unchecked this can lead to sepsis. Initial experiments utilized the murine macrophage cell line RAW 264.7, which was obtained from the American Type Culture Collection, (Manassas, Va.), the human epithelial cell line, A549, and primary macrophages derived from the bone marrow of BALB/c mice (Charles River Laboratories, Wilmington, Mass.). The cells from mouse bone marrow were cultured in 150-mm plates in Dulbecco's modified Eagle medium (DMEM; Life Technologies, Burlington, ON) supplemented with 20% FBS (Sigma Chemical Co, St. Louis, Mo.) and 20% L cell-conditioned medium as a source of M-CSF. Once macrophages were 60-80% confluent, they were deprived of L cell-conditioned medium for 14-16 h to render the cells quiescent and then were subjected to treatments with 100 ng/ml LPS or 100 ng/ml LPS+20 μg/ml peptide for 24 hours. The release of cytokines into the culture supernatant was determined by ELISA (R&D Systems, Minneapolis, Minn.). […] The samples were centrifuged for 5 min at 2000×g, the plasma was collected and then stored at −20° C. until being analyzed for IL-8 by ELISA (R&D Systems). […] Survival was monitored for 48 hours post injection.

[2] = system: human bronchial epithelial cells (HBE); test: LDH release assay (Cytotoxicity Detection Kit); format: cell-based; details: 100 μg/ml, 24 hours; no peptide control 1.0 ± 0.05
Method in brief: (§1)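 Both read-outs were colorimetric at OD490 on HBE cells after 24 h with 100 μg of each peptide. The WST-1 assay reported viability through mitochondrial dehydrogenase cleavage of the tetrazolium salt. The LDH assay tested the removed supernatant for enzyme leaked from membrane-damaged cells.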

HBE cells [3] = test: WST-1 assay (cell viability); format: cell-based, human
Method in brief: as §1

NFκB subunits = test: Translocation of NFκB subunits in nuclear extracts of THP-1 cells (Western blot, ELISA); format: cell-based, human; details: 60 min
THP-1 cells [4] = test: Quantitative real-time PCR (qPCR) in THP-1 cells; format: cell-based, human; details: 4 μg/ml, within 1 hour of treatment (data not shown)
Method: Quantitative real-time PCR (qPCR)—Differential gene expression identified by microarray analysis was validated using quantitative real-time PCR (qPCR) using SuperScriptTM III Platinum® Two-Step qRT-PCR Kit with SYBR® Green (Invitrogen Life Technologies), as per the manufacturer's instructions, in the ABI PRISMS® 7000 sequence detection system (Applied Biosystems, Foster city, Calif., USA). Briefly, 1 μg of total RNA was reverse transcribed in a 20 μl reaction volume for 50 min at 42° C., the reaction was terminated by incubating for 5 min at 85° C. and then digested for 30 min at 37° C. with RNAse H. The PCR reaction was carried out in a 12.5 μl reaction volume containing 2.5 μl of 1/10 diluted cDNA template. A melting curve was performed to ensure that any product detected was specific to the desired amplicon. Fold changes were calculated after normalization to endogenous GAPDH and using the comparative Ct method (Pfaffl MW. A new mathematical model for relative quantification in real-time RT-PCR. Nucleic Acids Res 2001; 29:No. 9 e45).

[5] = system: Human monocytic cells, THP-1; test: LPS-induced TNFα secretion by THP-1 cells (ELISA); details: 4 μg/ml; LPS-stimulated THP-1 cells
[6] = format: cell-based; details: overnight, 96-well plate
HBE cells [7] = details: 50 μg/ml, 4 h
THP-1 cells [8] = system: THP-1 cells

Polymyxin B
Inhibition of TNF-α [1]: 15 ± 2%
LDH Release (OD490 nm) [2]: 1.21 ± 0.03 OD490 nm
OD490 nm (WST-1 cell viability) (HBE cells [3]): 1.30 ± 0.13 OD490 nm
inhibition of LPS-induced p50 translocation (NFκB subunits): 82±5%
inhibition of LPS-induced p65 translocation (NFκB subunits): 80±90%

Cc1c2oc3c(C)ccc(C(=O)N[C@@H]4C(=O)N[C@H](C(C)C)C(=O)N5CCC[C@H]5C(=O)N(C)CC(=O)N(C)[C@@H](C(C)C)C(=O)O[C@@H]4C)c3nc-2c(C(=O)N[C@@H]2C(=O)N[C@H](C(C)C)C(=O)N3CCC[C@H]3C(=O)N(C)CC(=O)N(C)[C@@H](C(C)C)C(=O)O[C@@H]2C)c(N)c1=O [Actinomycin D] (I: T[dV]P[Sar][NMeV] / II: T[dV]P[Sar][NMeV]; ester I:1-I:C, II:1-II:C; linker I:N-II:N via Actinocin(9to1))
inhibition of LPS-induced transcription of TNFα and TNFAIP2 genes (THP-1 cells [4]): more than 96%
reduction of TNFα release [5]: 97.6%

CC[C@H](C)[C@H](NC(=O)[C@H](CCCCN)NC(=O)[C@H](CCC(=O)O)NC(=O)[C@H](CCCCN)NC(=O)[C@H](CO)NC(=O)[C@H](CCCCN)NC(=O)[C@H](CCCNC(=N)N)NC(=O)[C@H](Cc1ccccc1)NC(=O)[C@H](Cc1ccccc1)NC(=O)[C@H](CC(=O)O)NC(=O)CNC(=O)[C@H](CC(C)C)NC(=O)[C@@H](N)CC(C)C)C(=O)NCC(=O)N[C@@H](CCCCN)C(=O)N[C@@H](CCC(=O)O)C(=O)N[C@@H](Cc1ccccc1)C(=O)N[C@@H](CCCCN)C(=O)N[C@@H](CCCNC(=N)N)C(=O)N[C@H](C(=O)N[C@H](C(=O)N[C@@H](CCC(N)=O)C(=O)N[C@@H](CCCNC(=N)N)C(=O)N[C@H](C(=O)N[C@@H](CCCCN)C(=O)N[C@@H](CC(=O)O)C(=O)N[C@@H](Cc1ccccc1)C(=O)N[C@@H](CC(C)C)C(=O)N[C@@H](CCCNC(=N)N)C(=O)N[C@@H](CC(N)=O)C(=O)N[C@@H](CC(C)C)C(=O)N[C@H](C(=O)N1CCC[C@H]1C(=O)N[C@@H](CCCNC(=N)N)C(=O)N[C@H](C(=O)N[C@@H](CCC(=O)O)C(=O)N[C@@H](CO)C(=O)O)[C@@H](C)O)C(C)C)[C@@H](C)CC)C(C)C)[C@@H](C)CC [SEQ ID NO: 1, reference compound]
LDH Release (OD490 nm) [2]: 1.18 ± 0.05 OD490 nm
OD490 nm (WST-1 cell viability) (HBE cells [3]): 1.62 ± 0.34 OD490 nm
MIC, C. rhod. ([6]; Citobacter rhodensis): 8 µg/mL (≈ 1.78 µM)
MIC, EHEC ([6]; Enterohaemorrhagic E. coli): 4 µg/mL (≈ 0.89 µM)
MIC, E. coli ([6]; Escherichia coli): 32 µg/mL (≈ 7.12 µM)
MIC, P. aerug. ([6]; Pseudomonas aeruginosa): 96 µg/mL (≈ 21.4 µM)
MIC, S. typhim. ([6]; Salmonella enteritidis ssp. typhimurium): 64 µg/mL (≈ 14.2 µM)
Ratio of SEQ ID NO: 1-treated:control, L41559 6-pyruvoyl-tetrahydropterin synthase/dimerization cofactor of hepatocyte nuclear factor 1 alpha (HBE cells [7]): 0.20
Ratio of SEQ ID NO: 1-treated:control, NM_000120 epoxide hydrolase 1, microsomal (HBE cells [7]): 0.22
cytotoxicity (THP-1 cells [8]): not cytotoxic
